This is an account of results in paper PMC9352230 (ACS Omega, 2022).

Experiment [1] relates to ENPP1. The conditions noted are these: read-out: ENPP1 IC50, cited from earlier work.
In experiment [2] the test system is MCF7 (human breast cancer cell line). The experiment can be described thus: MTT cytotoxicity assay, MCF7. The settings on record: MCF7, 24 h, read-out: MCF7 (% inhibition ±SD). The class given is cell-based. Background: Formazan colour is commonly taken as a measure of viable cells.
In experiment [3] the target is T1, ENPP1 (Homo sapiens, UniProt P22413).
T1 sequence (P22413 1-925): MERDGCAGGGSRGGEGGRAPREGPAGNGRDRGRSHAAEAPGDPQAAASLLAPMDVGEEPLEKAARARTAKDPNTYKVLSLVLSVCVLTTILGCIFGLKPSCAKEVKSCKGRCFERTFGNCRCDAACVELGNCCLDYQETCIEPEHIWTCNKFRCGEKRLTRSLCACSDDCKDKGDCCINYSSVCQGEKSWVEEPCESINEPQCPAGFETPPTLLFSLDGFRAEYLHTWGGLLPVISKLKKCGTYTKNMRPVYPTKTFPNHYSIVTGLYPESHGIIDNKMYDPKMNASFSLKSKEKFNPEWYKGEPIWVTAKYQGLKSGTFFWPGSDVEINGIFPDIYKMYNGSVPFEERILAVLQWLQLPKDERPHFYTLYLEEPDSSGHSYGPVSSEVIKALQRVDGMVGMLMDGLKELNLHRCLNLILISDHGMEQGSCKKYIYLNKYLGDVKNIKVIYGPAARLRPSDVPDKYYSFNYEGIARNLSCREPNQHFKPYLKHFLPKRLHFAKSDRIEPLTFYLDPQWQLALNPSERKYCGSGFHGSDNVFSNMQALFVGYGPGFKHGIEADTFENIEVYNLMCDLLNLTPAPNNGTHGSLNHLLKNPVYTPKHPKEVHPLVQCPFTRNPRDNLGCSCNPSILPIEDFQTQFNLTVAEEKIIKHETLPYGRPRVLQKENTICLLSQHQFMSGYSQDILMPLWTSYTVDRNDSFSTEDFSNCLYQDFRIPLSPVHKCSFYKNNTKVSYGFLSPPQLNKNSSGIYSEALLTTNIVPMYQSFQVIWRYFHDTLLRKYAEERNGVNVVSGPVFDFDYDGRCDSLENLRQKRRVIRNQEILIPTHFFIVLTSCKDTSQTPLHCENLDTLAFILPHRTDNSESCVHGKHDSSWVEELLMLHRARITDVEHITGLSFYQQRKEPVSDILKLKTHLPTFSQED
The experiment can be described thus: Enzyme kinetic study, Lineweaver-Burk plots, ENPP1. Type of experiment: biochemical. The settings on record: triplicates.

Experiment [4] has as its system HEK293 (human embryonic kidney cell line). In words: MTT cytotoxicity assay, HEK293. The class given is cell-based. The settings on record: for inhibition at 100 µM: Homo sapiens, HEK293, 24 h, read-out: HEK293 (% inhibition ±SD).
Experiment [5] deals with T1, ENPP1. The experiment can be described thus: ENPP1 enzyme inhibition assay. The class given is biochemical.
Experiment [6] concerns the target T2, ENPP3 (Homo sapiens, UniProt O14638).
T2 sequence (O14638 1-875): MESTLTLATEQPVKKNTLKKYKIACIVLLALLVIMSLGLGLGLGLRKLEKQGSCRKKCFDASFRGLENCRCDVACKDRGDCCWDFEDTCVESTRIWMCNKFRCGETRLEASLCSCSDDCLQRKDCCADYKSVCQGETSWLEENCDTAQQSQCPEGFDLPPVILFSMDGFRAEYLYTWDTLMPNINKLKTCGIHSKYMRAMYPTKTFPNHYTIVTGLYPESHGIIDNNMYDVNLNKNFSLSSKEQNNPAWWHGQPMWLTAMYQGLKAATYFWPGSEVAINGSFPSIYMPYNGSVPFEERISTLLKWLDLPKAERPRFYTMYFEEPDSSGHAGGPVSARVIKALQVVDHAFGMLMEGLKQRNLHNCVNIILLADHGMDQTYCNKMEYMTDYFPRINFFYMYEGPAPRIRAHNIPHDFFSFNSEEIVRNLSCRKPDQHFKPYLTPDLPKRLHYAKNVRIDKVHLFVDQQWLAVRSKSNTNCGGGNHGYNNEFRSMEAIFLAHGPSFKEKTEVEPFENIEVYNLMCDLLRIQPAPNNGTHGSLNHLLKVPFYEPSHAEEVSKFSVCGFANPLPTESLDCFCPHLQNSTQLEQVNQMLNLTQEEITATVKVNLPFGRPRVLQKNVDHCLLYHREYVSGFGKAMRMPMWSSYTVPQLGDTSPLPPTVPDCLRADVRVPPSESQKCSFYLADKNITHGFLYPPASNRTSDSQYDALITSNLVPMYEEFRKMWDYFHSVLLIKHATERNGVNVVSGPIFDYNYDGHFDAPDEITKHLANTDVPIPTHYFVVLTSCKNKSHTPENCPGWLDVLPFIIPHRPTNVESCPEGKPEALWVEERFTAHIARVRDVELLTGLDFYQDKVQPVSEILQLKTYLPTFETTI
The experiment can be described thus: ENPP3 enzyme inhibition assay. The class given is biochemical. The settings on record: for inhibition at 100 µM: read-out: ENPP3 % inhibition ± SD.

Experiment [7] has as its target T2, ENPP3. The experiment can be described thus: Enzyme kinetic study, Lineweaver-Burk plots, ENPP3. The class given is biochemical. The conditions noted are these: triplicates.
The test system of experiment [8] is HeLa (human cervical cancer cell line). The experiment can be described thus: MTT cytotoxicity assay, HeLa. The class given is cell-based. The conditions noted are these: 100 μM compound, 24 h treatment, triplicate.

Entries after “also recorded” stand apart in the source; their conditions may differ. Read-outs that look alike come from different tables or passages of the source.

As to `Cc1ccc(S(=O)(=O)Oc2ccc(-c3sc4cc(OS(=O)(=O)c5ccc(C)cc5)ccc4c3C(=O)c3ccc(OCCN4CCCCC4)cc3)cc2)cc1` [3-(4-(2-(piperidin-1-yl)ethoxy)benzoyl)-2-(4-(tosyloxy)phenyl)benzo[b]thiophen-6-yl-4-methylbenzenesulfonate], in the experiment on ENPP1 [1] (selective inhibition of ENPP1), the half-maximal inhibitory concentration (IC50) (as a rule, the concentration at which inhibition is half-maximal) was 450 nM.

As for `CCCCc1ccc(S(=O)(=O)Oc2ccc(NC(=O)c3ccc(C)cc3)cc2)cc1` [4j, 4-(4-Methylbenzamido)phenyl 4-Butylbenzenesulfonate], the values for the inhibition at 100 µM (in experiment [2]; in experiment [4]; at ENPP3 [6]) were 13.3 ± 0.73%, 27.6 ± 2.55% and 42.1 ± 3.43%, respectively. In addition, at ENPP1 [3], the “mode of inhibition of ENPP1” value is on record as “uncompetitive; also recorded: uncompetitively”. The molecule also displayed an IC50 against ENPP1 [5] of 230 ± 30 nM.

`CC1(C(=O)Nc2ccc(OS(=O)(=O)c3ccc(F)cc3)cc2)c2ccccc2-c2ccccc21` [7c, 4-(9-Methyl-9H-fluorene-9-carboxamido)phenyl 4-Fluorobenzenesulfonate]: the inhibition (in general, the percentage by which the read-out fell short of the control) at 100 µM in experiment [2] was found to be 12.4 ± 1.22%; in experiment [4] it was 9.2 ± 0.42%. For the same molecule, the IC50 on ENPP1 [5] is 500 ± 30 nM; at ENPP3 [6] it was 6690 ± 1890 nM.

Turning to `CC1(C(=O)Nc2ccc(OS(C)(=O)=O)cc2)c2ccccc2-c2ccccc21` [7d, 4-(9-Methyl-9H-fluorene-9-carboxamido)phenyl Methanesulfonate], the inhibition at 100 µM in experiment [2] amounted to 0.2 ± 0.06%; in experiment [4], 5.5 ± 0.36%; on ENPP1 [5] (read-out: ENPP1 % inhibition ± SD) it was 9.2 ± 4.13%. The same molecule returned an IC50 on ENPP3 [6] of 160 ± 10 nM.

As to `Cc1ccc(S(=O)(=O)Oc2ccc(NC(=O)C3(C)c4ccccc4-c4ccccc43)cc2)cc1` [7e, 4-(9-Methyl-9H-fluorene-9-carboxamido)phenyl 4-Methylbenzenesulfonate], the inhibition at 100 µM in experiment [2] was 0.3 ± 0.15%; in experiment [4] it was 12.4 ± 1.42%. The IC50 at ENPP1 [5] is 18900 ± 540 nM; against ENPP3 [6] it was 380 ± 130 nM. At ENPP3 [7], the “mode of inhibition of ENPP3” value is given as “competitively”.

For `CC1(C(=O)Nc2ccc(OS(=O)(=O)c3ccccc3)cc2)c2ccccc2-c2ccccc21` [7f, 4-(9-Methyl-9H-fluorene-9-carboxamido)phenyl Benzenesulfonate], the inhibition at 100 µM in experiment [2] was 5.6 ± 1.11%; in experiment [4], 6.2 ± 1.17%; on ENPP3 [6], 42.1 ± 2.44%. Also, the half-maximal inhibitory concentration (IC50) against ENPP1 [5] is 8450 ± 250 nM.

In the case of `O=C(NS(=O)(=O)c1ccccc1)n1ccc2cccnc21` [N-(pyrrolo[2,3-b]pyridine-1-carbonyl)benzenesulfonamide], the concentration for half-maximal inhibition (IC50) with ENPP1 [1] (selective inhibitor of ENPP1) is 4500 ± 160 nM.

Regarding `N.N.[Cl][Pt][Cl]` [cisplatin, reference compound], in experiment [8], the “HeLa cell line (% inhibition ±SD)” value turned out to be 84.3 ± 2.72%. For the same molecule, the “HEK293 (% inhibition ±SD)” value in experiment [4] (100 μM compound, MTT, 24 h treatment, triplicate, normal cell line) came to 65.5 ± 1.48%.
